Assay: HILIC, HILICON iHILIC-(P) Classic, HILIC, PEEK, 50 × 2.1 mm, 5 µm, 45 °C, 0.12 mL/min, estimated dead time 0.92 min; A: water + 20 mM ammonium carbonate; B: acetonitrile; gradient (min/%B) 0/90 1/90 21/20 21.5/20 26.5/20 27.5/90 35/90
Conditions: stereoisomer not certain

Row | SMILES | LC retention time [min]
1 | Nc1ncnc2nc[nH]c12 [Adenine] | 3.42
2 | CC(=O)SCCNC(=O)CCNC(=O)C(O)C(C)(C)COP(=O)(O)OP(=O)(O)OCC1OC(n2cnc3c(N)ncnc32)C(O)C1OP(=O)(O)O (stereo not drawn) [Acetyl-CoA] | 8.69
3 | O=C(O)C(CO)OP(=O)(O)O (stereo not drawn) [Phosphoglyceric acid A] | 13.5
4 | Nc1ccn(C2OC(CO)C(O)C2O)c(=O)n1 (stereo not drawn) [Cytidine] | 5.92
5 | NC(CO)C(=O)O (stereo not drawn) [Serine] | 8.59
6 | Nc1nc2c(ncn2C2OC(CO)C(O)C2O)c(=O)[nH]1 (stereo not drawn) [Guanosine] | 6.69
7 | CC(=O)NC1C(OP(=O)(O)OP(=O)(O)OCC2OC(n3ccc(=O)[nH]c3=O)C(O)C2O)OC(CO)C(O)C1O (stereo not drawn) [UDP-GlcNAc] | 11.7
8 | O=C(CO)COP(=O)(O)O [Triose phosphate] | 11.3
9 | NC(=O)C1=CN(C2OC(COP(=O)(O)OP(=O)(O)OCC3OC(n4cnc5c(N)ncnc54)C(OP(=O)(O)O)C3O)C(O)C2O)C=CC1 (stereo not drawn) [NADPH] | 16.8
10 | O=c1ccn(C2OC(COP(=O)(O)OP(=O)(O)O)C(O)C2O)c(=O)[nH]1 (stereo not drawn) [UDP] | 12.2
11 | O=C(O)CC(C(=O)O)C(O)C(=O)O (stereo not drawn) [Isocitric acid] | 15.9
12 | O=c1ccn(C2OC(COP(=O)(O)OP(=O)(O)OP(=O)(O)O)C(O)C2O)c(=O)[nH]1 (stereo not drawn) [UTP] | 14.3
13 | CC(O)C(=O)O (stereo not drawn) [Lactic Acid] | 2.81
14 | NC(CSSCC(N)C(=O)O)C(=O)O (stereo not drawn) [Cystine] | 11.6
15 | Nc1ccn(C2OC(COP(=O)(O)OP(=O)(O)O)C(O)C2O)c(=O)n1 (stereo not drawn) [CDP] | 13.2
16 | O=P(O)(O)OCC(O)CO (stereo not drawn) [Glycerol-3-phosphate] | 10.9
17 | NC(Cc1ccc(O)cc1)C(=O)O (stereo not drawn) [Tyrosine] | 6.98
18 | NC(=O)c1ccc[n+](C2OC(COP(=O)([O-])O)C(O)C2O)c1 (stereo not drawn) [NMN] | 9.43
19 | O=C(O)C1(O)CC(O)C(O)C(O)C1 (stereo not drawn) [Quinic Acid] | 6.43
20 | Nc1nc2ncc(CNc3ccc(C(=O)NC(CCC(=O)O)C(=O)O)cc3)nc2c(=O)[nH]1 (stereo not drawn) [Folic Acid] | 14.3

Row | SMILES | LC retention time [min]
21 | NC(=O)CCC(N)C(=O)O (stereo not drawn) [Glutamine] | 8.36
22 | NC(CCC(=O)NC(CS)C(=O)NCC(=O)O)C(=O)O (stereo not drawn) [GSH] | 8.5
23 | O=C(O)CC(=O)O [Malonic Acid] | 9.39
24 | Nc1ccn(C2OC(COP(=O)(O)O)C(O)C2O)c(=O)n1 (stereo not drawn) [CMP] | 10.9
25 | Nc1nc2c(ncn2C2OC(COP(=O)(O)OP(=O)(O)O)C(O)C2O)c(=O)[nH]1 (stereo not drawn) [GDP] | 15.2
26 | O=P(O)(O)OCC1OC(O)(COP(=O)(O)O)C(O)C1O (stereo not drawn) [Fructose-1,6-bisphosphate] | 16.3
27 | O=c1ccn(C2OC(COP(=O)(O)O)C(O)C2O)c(=O)[nH]1 (stereo not drawn) [UMP] | 9.52
28 | O=C(O)CCC(=O)O [Succinic Acid] | 11.8
29 | NC(CCC(=O)NC(CSSCC(NC(=O)CCC(N)C(=O)O)C(=O)NCC(=O)O)C(=O)NCC(=O)O)C(=O)O (stereo not drawn) [GSSG] | 15.3
30 | NCCCC(N)C(=O)O (stereo not drawn) [Ornithine] | 18.1
31 | O=C(O)C1CCCN1 (stereo not drawn) [Proline] | 6.81
32 | CC(C)CC(N)C(=O)O (stereo not drawn) [Leucine] | 5.45
33 | O=C1OC(C(O)CO)C(O)=C1O (stereo not drawn) [Ascorbic Acid] | 9.37
34 | O=C(O)CCCCC1SCC2NC(=O)NC21 (stereo not drawn) [Biotin] | 3.35
35 | NC(=O)c1ccc[n+](C2OC(COP(=O)(O)OP(=O)(O)OCC3OC(n4cnc5c(N)ncnc54)C(O)C3O)C(O)C2O)c1 (stereo not drawn) [NAD] | 8.93
36 | Nc1ncnc2c1ncn2C1OC(COP(=O)(O)O)C(O)C1O (stereo not drawn) [AMP] | 8.49
37 | CC(=O)NC(CC(=O)O)C(=O)O (stereo not drawn) [N-Acetylaspartic acid] | 9.96
38 | Nc1ncnc2c1ncn2C1OC(CO)C(O)C1O (stereo not drawn) [Adenosine] | 3.57
39 | O=C(O)CC(O)(CC(=O)O)C(=O)O [Citric acid] | 16.4
40 | NC(Cc1c[nH]c2ccccc12)C(=O)O (stereo not drawn) [Tryptophan] | 6.18

Row | SMILES | LC retention time [min]
41 | Cc1ncc(C[n+]2csc(CCO)c2C)c(N)n1 [Thiamine] | 13
42 | Nc1ncnc2c1ncn2C1OC(COP(=O)(O)OP(=O)(O)O)C(O)C1O (stereo not drawn) [ADP] | 12.2
43 | NC(Cc1ccccc1)C(=O)O (stereo not drawn) [Phenylalanine] | 4.97
44 | NC(=O)c1ccc[n+](C2OC(COP(=O)(O)OP(=O)(O)OCC3OC(n4cnc5c(N)ncnc54)C(OP(=O)(O)O)C3O)C(O)C2O)c1 (stereo not drawn) [NADP] | 13.5
45 | O=C(O)CC(O)C(=O)O (stereo not drawn) [Malic Acid] | 13.1
46 | Nc1nc2c(ncn2C2OC(COP(=O)(O)OP(=O)(O)OP(=O)(O)O)C(O)C2O)c(=O)[nH]1 (stereo not drawn) [GTP] | 17.1
47 | Nc1ncnc2c1ncn2C1OC(COP(=O)(O)OP(=O)(O)OP(=O)(O)O)C(O)C1O (stereo not drawn) [ATP] | 13.6
48 | CCC(C)C(N)C(=O)O (stereo not drawn) [Isoleucine] | 5.72
49 | NC(=O)CC(N)C(=O)O (stereo not drawn) [Asparagine] | 10.8
50 | O=C(O)c1cccnc1 [Nicotinic acid] | 1.66
51 | CC(O)C(N)C(=O)O (stereo not drawn) [Threonine] | 8.21
52 | CC(C)C(N)C(=O)O (stereo not drawn) [Valine] | 6.71
53 | C=C(OP(=O)(O)O)C(=O)O [PEP] | 13.7
54 | NCCCCC(N)C(=O)O (stereo not drawn) [Lysine] | 18.8
55 | NC(=O)C1=CN(C2OC(COP(=O)(O)OP(=O)(O)OCC3OC(n4cnc5c(N)ncnc54)C(O)C3O)C(O)C2O)C=CC1 (stereo not drawn) [NADH] | 9.33
56 | Nc1nc2c(ncn2C2OC(COP(=O)(O)O)C(O)C2O)c(=O)[nH]1 (stereo not drawn) [GMP] | 14.2
57 | NC(CCC(=O)O)C(=O)O (stereo not drawn) [Glutamic acid] | 9.69
58 | CSCCC(N)C(=O)O (stereo not drawn) [Methionine] | 5.91

— the RepoRT retention time repository
